SMILES strings stand for the structures. Entries after “also recorded” stand apart in the source; their conditions may differ. Like-named read-outs stand apart in the source and are kept apart here.

In assay [1] the target is T1, P. wynnii beta-galactosidase (SEQ ID NO: 1) (Paenibacillus wynnii, UniProt A0A098MAF9). Briefly: Influence of galactose on the enzyme activity, lactose assay. Type of assay: biochemical. Conditions: 8 °C. How it is done:
(§1) For the substrate solution 400 mM lactose was dissolved in Novo buffer (the composition of which is depicted in Table 4). The beta-galactosidase activity was determined in a thermo shaker in 1.5 mL reaction tubes at 8°C. The enzyme mix and the lactose solution were preincubated at 8 °C for 12 min. To start the enzymatic reaction 100 µL of the enzyme mix were added to 100 µL lactose solution. The reaction was carried out for 5 min at 8 °C. The reaction was stopped by adding 300 µL 1 M HClO4 to the enzyme-substrate-mix. The mix was kept on ice for 5 min before it was centrifuged at 13 000 rcf and 4 °C for 5 min. 160 µL of the supernatant were transferred to 75 µL 2 M KOH to neutralise the solution. The neutralisation step was checked using pH paper and the pH was adjusted if necessary. The solution was kept on ice for another 5 min before it was centrifuged at 13 000 rcf at 4 °C for 5 min. All assays were performed in triplicate. Table 4: Composition of Novo buffer
(§2) The influence of galactose was investigated with P. wynnii beta-galactosidase and the commercial beta-galactosidase Opti-Lactase (Optiferm GmbH, Oy-Mittelberg (D)). The determination of the enzyme activity in Novo buffer was conducted with a lactose concentration of 125 mM and 50 mM respectively. To this solutions 125 or 200 mM galactose were added. The determination of the enzyme activity was performed as described above.
(§3) First, 125 and 200 mM galactose respectively were added to 125 mM lactose (A). The enzyme activity of the technical enzyme preparation decreased with increasing galactose concentration. An activity of 51.8 % was determined. […] In another experiment 200 mM galactose was added to 50 mM lactose (B). Here, the same effect as in (A) could be observed.

Assay [2] deals with commercial beta-galactosidase Opti-Lactase (K. lactis) (Kluyveromyces lactis, UniProt P00723). The description is as above. Type of assay: biochemical. The conditions noted are these: 200 mM galactose, 8 °C, substrate Lactose. How it is done:
as §1, §2, §3

In assay [3] the test system is Metagenome M1 beta-galactosidase (metagenome beta-galactosidase 3J33 as described in EP 2 530 148 A1). Briefly: Influence of glucose and galactose on the enzyme activity, oNPGal assay. Type of assay: biochemical. Conditions: 200 mM galactose, 37 °C, substrate oNPGal. On the procedure:
(§4) The enzyme activity of beta-galactosidase was determined in 1.2 mL scale using oNPGal as substrate at 37 °C. For the assays a final concentration of 25 mM oNPGal dissolved in 100 mM potassium phosphate buffer (pH 6.75 containing 5 mM magnesium chloride) was used. Substrate and enzyme solution were preheated separately. The reaction was performed in a temperature-controlled cuvette using a spectrophotometer by adding enzyme solution to oNPGal solution. The increase of absorbance at 405 nm as result of o-nitrophenol release was measured for 2 min. The activity was calculated from the slope of the straight line.
(§5) Due to the experimental setup (analysis), it was not possible to measure the influence of glucose with the natural substrate lactose.

For assay [4], the target named is T1, P. wynnii beta-galactosidase (SEQ ID NO: 1). Described as above. Type of assay: biochemical. The conditions noted are these: pH 6.75, 200 mM Galactose, 37 °C, read-out: Relative enzyme activity. How it is done: as §4, §5
Assay [5] deals with Metagenome M1 beta-galactosidase (metagenome beta-galactosidase 3J33 as described in EP 2 530 148 A1). Briefly: Influence of galactose on the enzyme activity, lactose assay. Type of assay: biochemical. Conditions: 8 °C; for Relative enzyme activity: Lactose-Assay. How it is done:
as §1
The influence of galactose was also investigated with the metagenome M1 beta-galactosidase as described before. The determination of the enzyme activity in Novo buffer was conducted with a lactose concentration of 125 mM and 50 mM respectively. To this solutions 125 or 200 mM galactose were added.

Assay [6] concerns the target K. lactis beta-galactosidase (Kluyveromyces lactis, UniProt P00723). The conditions noted are these: 200 mM galactose, 37 °C, substrate oNPGal; cited from earlier work.
The subject of assay [7] is P. barengoltzii beta-galactosidase. Conditions: 200 mM galactose, 45 °C, substrate oNPGal; cited from earlier work.
Assay [8] deals with T1, P. wynnii beta-galactosidase (SEQ ID NO: 1). Briefly: Determination of KM with lactose as substrate. The class given is biochemical. The conditions noted are these: Novo-buffer, 8 °C. On the procedure:
as §1, with “The solution was kept on ice for another 5 min before it was centrifuged at 13 000 rcf at 4 °C for 5 min. All assays were performed in triplicate. Table 4: Composition of Novo buffer” left out
The kinetic parameters were determined using the natural substrate lactose. […]
For the determination of the KM values of P. wynnii beta-galactosidase lactose concentrations ranged from 0.76 mM to 97.5 mM. […] The enzyme activities were measured under initial reaction velocity conditions of the enzyme. The reaction times for the initial velocity of the enzymes were determined in previous experiments. The kinetic parameter KM was analysed using the Enzyme Kinetics Module in SigmaPlot 12.5 (Systat Software, Inc., San Jose, USA). […]

For assay [9], the system named is Metagenome M1 beta-galactosidase (metagenome beta-galactosidase 3J33 as described in EP 2 530 148 A1). Briefly: Turnover number with lactose as substrate. Type of assay: biochemical. Conditions: 8 °C. How it is done: To determine the turnover number, the specific activity of the enzymes on lactose at 8 °C was determined. The following formula was used to determine the turnover number: Kcat = (Vmax)/([E]) [s^−1] [formula] • Kcat = turnover number [s^-1] • Vmax = maximum activity [nkat/mg] • [E] = enzyme concentration […]
In Table 9, the calculated turnover numbers of the two beta-galactosidases are depicted. Table 9: Turnover numbers of the beta-galactosidases M1 and P. wynnii (8 °C, lactose as substrate)

Assay [10] has the same test system. The conditions noted are these: 8 °C, read-out: KM,lactose, cited from earlier work.
Assay [11] relates to Bacillus circulans beta-galactosidase. Conditions: phosphate buffer, 40 °C; read-out: KM,lactose; cited from earlier work.
The test system of assay [12] is beta-galactosidase PbGal2A from P. barengoltzii. Conditions: read-out: KM,lactose, cited from earlier work.

T1 sequence (A0A098MAF9 1-1042): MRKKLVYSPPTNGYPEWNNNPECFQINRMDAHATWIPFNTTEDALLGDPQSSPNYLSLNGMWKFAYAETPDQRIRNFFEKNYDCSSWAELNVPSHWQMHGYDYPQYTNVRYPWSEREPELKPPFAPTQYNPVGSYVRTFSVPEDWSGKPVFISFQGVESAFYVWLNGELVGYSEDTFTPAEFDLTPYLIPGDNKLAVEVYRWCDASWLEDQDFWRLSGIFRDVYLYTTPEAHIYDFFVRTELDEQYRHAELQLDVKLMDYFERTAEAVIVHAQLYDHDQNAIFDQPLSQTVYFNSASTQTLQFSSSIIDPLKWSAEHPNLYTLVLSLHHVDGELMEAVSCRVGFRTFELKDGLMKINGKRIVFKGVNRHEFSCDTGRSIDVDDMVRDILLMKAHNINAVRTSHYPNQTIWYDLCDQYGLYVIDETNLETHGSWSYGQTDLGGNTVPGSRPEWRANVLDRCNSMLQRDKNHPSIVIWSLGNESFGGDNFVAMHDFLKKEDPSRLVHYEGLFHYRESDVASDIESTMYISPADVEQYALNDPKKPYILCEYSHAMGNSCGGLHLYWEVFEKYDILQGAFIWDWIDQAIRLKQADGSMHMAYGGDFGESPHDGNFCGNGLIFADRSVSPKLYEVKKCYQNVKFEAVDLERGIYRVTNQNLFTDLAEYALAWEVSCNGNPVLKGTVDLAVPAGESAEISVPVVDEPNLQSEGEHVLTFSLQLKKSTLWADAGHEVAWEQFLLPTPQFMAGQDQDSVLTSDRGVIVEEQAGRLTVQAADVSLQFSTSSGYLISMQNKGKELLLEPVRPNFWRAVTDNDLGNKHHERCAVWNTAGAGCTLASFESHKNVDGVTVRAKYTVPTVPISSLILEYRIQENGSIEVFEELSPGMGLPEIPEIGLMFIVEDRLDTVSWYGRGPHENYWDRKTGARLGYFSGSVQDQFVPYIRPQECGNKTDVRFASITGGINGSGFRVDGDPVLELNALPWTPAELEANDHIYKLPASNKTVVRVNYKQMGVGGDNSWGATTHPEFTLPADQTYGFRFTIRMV
commercial beta-galactosidase Opti-Lactase (K. lactis), sequence (P00723 whole entry): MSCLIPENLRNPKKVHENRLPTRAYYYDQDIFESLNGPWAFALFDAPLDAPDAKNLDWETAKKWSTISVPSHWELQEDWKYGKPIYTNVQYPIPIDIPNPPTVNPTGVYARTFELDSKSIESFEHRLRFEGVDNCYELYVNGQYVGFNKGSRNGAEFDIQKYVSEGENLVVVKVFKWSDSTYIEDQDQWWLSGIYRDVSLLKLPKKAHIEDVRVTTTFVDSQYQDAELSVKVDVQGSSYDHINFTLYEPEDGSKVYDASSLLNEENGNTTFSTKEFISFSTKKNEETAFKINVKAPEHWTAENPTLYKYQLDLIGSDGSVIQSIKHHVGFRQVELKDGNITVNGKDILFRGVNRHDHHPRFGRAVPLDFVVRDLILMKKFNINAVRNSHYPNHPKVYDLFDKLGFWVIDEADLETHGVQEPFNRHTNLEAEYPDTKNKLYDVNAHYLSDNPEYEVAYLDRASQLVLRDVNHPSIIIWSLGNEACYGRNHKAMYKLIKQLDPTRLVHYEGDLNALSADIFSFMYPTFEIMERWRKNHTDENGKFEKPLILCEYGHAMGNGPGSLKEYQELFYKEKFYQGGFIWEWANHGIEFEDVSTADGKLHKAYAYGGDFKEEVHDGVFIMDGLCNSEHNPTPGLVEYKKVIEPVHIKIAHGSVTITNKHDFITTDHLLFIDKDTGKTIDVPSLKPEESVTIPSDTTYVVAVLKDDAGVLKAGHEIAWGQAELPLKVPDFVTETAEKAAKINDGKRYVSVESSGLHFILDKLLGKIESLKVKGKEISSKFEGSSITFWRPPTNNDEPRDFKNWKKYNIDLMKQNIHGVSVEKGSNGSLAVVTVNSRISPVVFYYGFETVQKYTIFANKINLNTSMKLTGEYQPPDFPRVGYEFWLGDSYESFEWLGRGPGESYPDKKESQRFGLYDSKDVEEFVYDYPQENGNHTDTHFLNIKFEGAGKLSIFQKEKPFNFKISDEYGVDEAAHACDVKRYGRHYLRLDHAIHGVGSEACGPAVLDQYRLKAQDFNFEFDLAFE
K. lactis beta-galactosidase, sequence (P00723 whole entry): as above

Turning to `OC[C@H]1OC(O)[C@H](O)[C@@H](O)[C@H]1O` (stereo partly drawn) [galactose, D-galactose], the activity at 200000 µM is 100% in assay [1] (200 mM galactose, substrate Lactose) and 32.5% in assay [2]. Further, the remaining activity at 200000 µM worked out at 110% in [1] (5 min, 50 mM lactose + 200 mM galactose, Lactose-Assay, read-out: Relative enzyme activity); 115% in assay [1] (5 min, 125 mM lactose + 200 mM galactose, Lactose-Assay, read-out: Relative enzyme activity); 118% in assay [4]. For the same compound, the remaining activity at 125000 µM in [1] (5 min, 125 mM lactose + 125 mM galactose, Lactose-Assay, read-out: Relative enzyme activity) stood at 108%. In addition, the inhibition by galactose result in assay [1] (galactose up to 200 mM, Novo buffer, lactose as substrate) was “No inhibition; also recorded: did not have an inhibitory effect”; in assay [5] (125 or 200 mM galactose, 125 or 50 mM lactose, Novo buffer) it was “did also not have an inhibitory effect”. Further, the figures for the “Influence of galactose (200 mM)” value in [3], in assay [6] and in assay [7] were 100 % EA, 75 % EA and 43.27 % EA, respectively. Moreover, the values for the Relative enzyme activity in assay [5] (50 mM lactose + 200 mM galactose), in assay [5] (125 mM lactose + 125 mM galactose) and in [5] (125 mM lactose + 200 mM galactose) were 100%, 97% and 101%, respectively.
With `OC[C@H]1O[C@@H](O[C@H]2[C@H](O)[C@@H](O)C(O)O[C@@H]2CO)[C@H](O)[C@@H](O)[C@H]1O` (stereo partly drawn) [lactose], the Km in [8] is 0.34 to 0.52 mM; in assay [10] (Novo buffer) it was 1.44 mM; in [10] (milk + Novo buffer), 2.1 mM; in assay [11], 16 mM; in [12] (MOPS buffer, 45 °C) it was 43.3 mM; in assay [12], 43.3 ± 1.84 mM. The “Turnover number (Kcat)” value in assay [9] was found to be 2.466 s⁻¹.

Values taken from patent EP3911180B1, “PAENIBACILLUS WYNNII BETA-GALACTOSIDASE FOR THE PRODUCTION OF LACTOSE-DEPLETED AND GOS-ENRICHTED DAIRY PRODUCTS” (Universität Hohenheim, priority 2019, dated 2020).
